Data published in ChEMBL document CHEMBL4619759, “A DNA Repair Inhibitor Isolated from an Ecuadorian Fungal Endophyte Exhibits Synthetic Lethality in PTEN-Deficient Glioblastoma” (2020).
Calls of active or inactive are those of the source.

What was measured:
U-251 [1] = test: Induction of cell cycle arrest in PTEN-deficient human U251 cells assessed as accumulation at G2/M phase at 6.25 to 12.5 ug/ml incubated for 4 hrs followed by irradiation with 5 Gy IR by PI staining based flow cytometric analysis; type: functional
U-251 [2] = test: Induction of DNA damage in PTEN-proficient human U251 cells assessed as accumulation of gammaH2AX positive cells at G2/M phase at 6.25 to 12.5 ug/ml measured after 4 to 24 hrs by PI staining based flow cytometric analysis; type: functional, cell-based
U-251 [3] = test: Selective cytotoxicity against PTEN-deficient human U251 cells at 12.5 ug/ml after 48 hrs by CellTiter-Glo luminescent cell viability assay; type: functional, cell-based
U-251 [4] = test: Radiosensitizer activity in PTEN-deficient human U251 cells assessed as reduction in cell survival at 6.25 to 12.5 ug/ml in presence of 5 Gy IR irradiation by CellTiter-Glo cell viability assay; type: functional, cell-based
U-251 [5] = test: Induction of DNA damage in PTEN-proficient human U251 cells assessed as accumulation of gammaH2AX positive cells at S phase at 6.25 to 12.5 ug/ml measured after 4 to 24 hrs by PI staining based flow cytometric analysis; type: functional, cell-based
U-251 [6] = test: Induction of DNA damage in PTEN-deficient human U251 cells assessed as accumulation of gammaH2AX positive cells at S phase at 6.25 to 12.5 ug/ml measured after 4 to 24 hrs by PI staining based flow cytometric analysis; type: functional, cell-based
U-251 [7] = test: Induction of DNA damage in PTEN-deficient human U251 cells assessed as accumulation of gammaH2AX positive cells at G2/M phase at 6.25 to 12.5 ug/ml measured after 4 to 24 hrs by PI staining based flow cytometric analysis; type: functional, cell-based
U-251 [8] = test: Induction of DNA damage in PTEN-deficient human U251 cells assessed as gammaH2AX foci formation at 12.5 ug/ml in presence of 5 Gy IR irradiation measured after 4 to 24 hrs by PI staining based flow cytometric analysis; type: functional, cell-based
U-251 [9] = test: Induction of DNA damage in PTEN-proficient human U251 cells assessed as accumulation of gammaH2AX positive cells at G1 phase at 6.25 to 12.5 ug/ml measured after 4 to 24 hrs by PI staining based flow cytometric analysis; type: functional, cell-based
[10] = Inhibition of DSB repair in PTEN-deficient human U2OS EJ-DR cells assessed as reduction in mutagenic non-homologous end joining activity at 12.5 ug/ml incubated for 24 hrs in presence of DSB inducer by flow cytometric analysis relative to control; type: functional
U-251 [11] = test: Inhibition of DSB repair in PTEN-deficient 5 Gy IR-induced human U251 cells assessed as increase in comet tail moment at 12.5 ug/ml pretreated followed by irradiation with 5 Gy IR by neutral comet assay; type: functional, cell-based
U-251 [12] = test: Induction of DNA damage in PTEN-deficient human U251 cells assessed as gammaH2AX accumulation at 6.25 to 12.5 ug/ml after 4 to 24 hrs by PI staining based flow cytometric analysis; type: functional, cell-based
U-251 [13] = test: Induction of cell cycle arrest in PTEN-deficient human U251 cells assessed as accumulation at G1 phase at 6.25 to 12.5 ug/ml after 4 to 24 hrs by PI staining based flow cytometric analysis; type: functional
U-251 [14] = test: Induction of DNA damage in PTEN-deficient human U251 cells assessed as accumulation of gammaH2AX positive cells at G1 phase at 6.25 to 12.5 ug/ml measured after 4 to 24 hrs by PI staining based flow cytometric analysis; type: functional, cell-based
U-251 [15] = test: Induction of cell cycle arrest in PTEN-proficient human U251 cells assessed as accumulation at G2/M phase at 6.25 to 12.5 ug/ml incubated for 4 hrs followed by irradiation with 5 Gy IR by PI staining based flow cytometric analysis; type: functional
U-251 [16] = test: Induction of DNA damage in PTEN-deficient human U251 cells assessed as accumulation of gammaH2AX positive cells at G1 phase at 12.5 ug/ml in presence of 5 Gy IR irradiation measured after 4 to 24 hrs by PI staining based flow cytometric analysis; type: functional, cell-based
[17] = Inhibition of DSB repair in PTEN-deficient human U2OS EJ-DR cells assessed as reduction in homologous recombination activity at 12.5 ug/ml incubated for 24 hrs in presence of DSB inducer by flow cytometric analysis relative to control; type: functional
U-251 [18] = test: Inhibition of DSB repair in PTEN-deficient human U251 cells at 12.5 ug/ml by neutral comet assay; type: functional, cell-based

O=C1Nc2ccccc2-c2ccnc3ccc(O)c1c23
active: Activity (U-251 [1]) | Activity (U-251 [3]) | Activity (U-251 [4]) | Activity (U-251 [8]) | inhibition (U-251 [11]) | Activity (U-251 [12]) | Activity (U-251 [13]) | Activity (U-251 [15]) | Activity (U-251 [16]) | inhibition (U-251 [18])
46%: inhibition at 12.5 µg/mL [17]
inactive: Activity (U-251 [2]) | Activity (U-251 [5]) | Activity (U-251 [6]) | Activity (U-251 [7]) | Activity (U-251 [9]) | Activity (U-251 [14])
48%: inhibition at 12.5 µg/mL [10]
